Data taken from patent US20230339988A1, “Metal Complexes Of Macrocycles And/Or Isoprenoids And/Or Linear Tetrapyrroles By Mechanochemistry (Grinding Or Milling), Preparation Method Thereof, Sunscreen/Concealer/UV Absorber Thereof, Self-Assembled Coating Material Thereof, Superamphiphilic Material Or Surfaces Thereof, Hair Dyeing Thereof …” (priority 2019, published 2023).

Assay: Solubility in carbon disulfide
Format: physicochemical
Conditions: test tube
Description: Carbon disulfide is a non-polar solvent which is commonly used as solvent for metal complexes.
It is clear that all of the reactants reacted by this mechanochemical process. The mechanochemical reaction promotes a chemical change.

COc1cc(/C=C/C(=O)CC(=O)/C=C/c2ccc(O)c(OC)c2)ccc1O [Curcumin]
solubility in carbon disulfide: completely soluble
